# Data taken from patent publication US20250171434A1, “SEC61 INHIBITORS AND USE THEREOF” (KEZAR LIFE SCIENCES, INC., priority 2022, published 2025).
# Key:
# [1] = Liver Microsome Stability Assay, monkey; format: in vitro ADME; details: monkey liver microsomes 1.0 mg/mL, 1.0 uM compound, 37° C., 1 mM NADPH
# Procedure, shortened: (§1)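 Microsomes (1.0 mg/mL) in 0.1 M potassium phosphate are mixed with 1.0 uM test compound and 0.4% DMSO. Incubation runs at 37° C with or without 1 mM NADPH, and samples are quenched at 0 and 30 minutes.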
# [2] = tested on: multiple myeloma cell line NCI-H929; test: H929 Cell Viability Assay; format: cell-based, human; details: Homo sapiens; NCI-H929 cells, 48 hours, Celltiter-Glo; read-out: 48 hr H929 Viability Celltiter-Glo: Mean EC50
# Procedure, shortened: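 NCI-H929 cells in RPMI 1640 with 10% FBS were treated with compound dilutions for 48 h at 37° C, 5% CO2. Viability was read by CellTiter-Glo luminescence. Undefined stereocentres denote stereoisomer mixtures.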
# [3] = tested on: multiple myeloma cell line U266B1; test: U266 Cell Viability Assay; format: cell-based; details: Homo sapiens, U-266; U266B1 cells, 48 hours, Celltiter-Glo; read-out: 48 hr U266 Viability Celltiter-Glo: Mean EC50
# Procedure, shortened: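 U266B1 multiple myeloma cells in RPMI 1640/10% FBS were treated with compound dilutions for 48 h at 37 °C, 5% CO2. Viability was measured by CellTiter-Glo luminescence; compounds drawn without stereochemistry were tested as stereoisomer mixtures.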
# [4] = tested on: IL-2-FL/Gaussia Luciferase; test: Dox Inducible IL2-FL-Gluc Assay; format: cell-based; details: Table 3; for IC50: Flp-In 293 T-REx cells, 24 hours with doxycycline, read-out: 24 hr Dox Inducible IL2FLGluc 293FRT/TO: Mean IC50; for 24 hr Dox Inducible IL2FLGluc 293FRT/TO: IL2/PD1: ratio of IC50s IL2/PD1
# Procedure, shortened: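 Stable Flp-In 293 T-REx cells carrying doxycycline-inducible full-length IL-2 (aa 1-153) fused to Gaussia luciferase, plated the day before assay. Compound dilutions added in medium containing doxycycline, incubated at 37 °C, 5% CO2. Undefined stereocentres mean data refer to stereoisomer mixtures.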
# [5] = Liver Microsome Stability Assay, human; format: in vitro ADME; details: human liver microsomes 1.0 mg/mL, 1.0 uM compound, 37° C., 1 mM NADPH
# Procedure, shortened: as §1
# [6] = Liver Microsome Stability Assay, rat; format: in vitro ADME; details: rat liver microsomes 1.0 mg/mL, 1.0 uM compound, 37° C., 1 mM NADPH
# Procedure, shortened: as §1
# [7] = tested on: PD1-ss+10aa/Gaussia Luciferase; test: Dox-Induced PD1-ss-Gluc Assay; format: cell-based; details: Flp-In 293 T-REx cells, 24 hours with doxycycline; Table 3; read-out: 24 hr Dox Inducible PD1ssGluc 293FRT/TO: Mean IC50
# Procedure, shortened: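 Doxycycline-induced expression of a PD1-ss+10aa/Gaussia luciferase reporter is measured in stable Flp-In 293 T-REx cells. Compound dilutions containing doxycycline are added one day after plating and incubated at 37 °C, 5% CO2. Values for unassigned stereocentres refer to stereoisomer mixtures.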
# [8] = Liver Microsome Stability Assay, mouse; format: in vitro ADME; details: mouse liver microsomes 1.0 mg/mL, 1.0 uM compound, 37° C., 1 mM NADPH
# Procedure, shortened: as §1
# [9] = tested on: TNFα-FL/Gaussia Luciferase; test: Dox Induced TNFα-FL-Gluc Assay; format: cell-based; details: Table 3; for IC50: Flp-In 293 T-REx cells, 24 hours with doxycycline, read-out: 24 hr Dox Inducible TNFaFLGluc 293FRT/TO: Mean IC50; for 24 hr Dox Inducible TNFaFLGluc 293FRT/TO: TNF/PD1: ratio of IC50s TNF/PD1
# Description: (§2) Flp-In 293 T-REx™ cells were transfected with pcDNA™5/FRT/TO plasmid inserted with cDNA encoding Gaussia Luciferase fused to the 3′ end of cDNA encoding full length TNFα (amino acids 1-233). Transfected cells were selected for resistance to the selectable markers Hygromycin and Blasticidin to create a stable cell line that contained the TNFα-FL/Gaussia Luciferase cDNA insert whose expression was regulated under the T-REx™ system. The day before assay, cells were trypsinized and plated in 384-well tissue culture plates. The next day, compound dilutions in DMSO/media containing doxycycline were added to the wells and incubated at 37° C., 5% CO2.
# (§3) For chemical structures that include one or more stereoisomers, but are illustrated without indicating stereochemistry, the assay data refers to a mixture of stereoisomers.
# [10] = tested on: HER3-ss+4aa/Gaussia Luciferase; test: Dox-Inducible Her3-ss-Gluc Assay; format: cell-based; details: Flp-In 293 T-REx cells, 24 hours with doxycycline; Table 3; read-out: 24 hr Dox Inducible Her3(ss + 4)Gluc 293FRT/TO: Mean IC50
# Description: as §2, with “HER3 signal sequence plus 4 amino” for “full length TNFα (amino”, “(N-[…]-C) (SEQ ID NO: 2).” for “1-233).”, “HER3-ss+4aa/Gaussia” for “TNFα-FL/Gaussia”
# as §3
Liver Microsome Stability (Multiple Species): Monkey - % Remaining after 30 min w/ NADPH (%) [1],EC50 [2],EC50 [3],IC50 [4],Liver Microsome Stability (Multiple Species): Human - % Remaining after 30 min w/ NADPH (%) [5],Liver Microsome Stability (Multiple Species): Rat - % Remaining after 30 min w/ NADPH (%) [6],IC50 [7],Liver Microsome Stability (Multiple Species): Mouse - % Remaining after 30 min w/ NADPH (%) [8],IC50 [9],IC50 [10],Compound,24 hr Dox Inducible IL2FLGluc 293FRT/TO: IL2/PD1 [4],24 hr Dox Inducible TNFaFLGluc 293FRT/TO: TNF/PD1 [9]
<1%,13.6 µM,15.3 µM,> 25 µM,1%,1%,0.54 µM,3%,> 25 µM,> 25 µM,"C/C(=C\c1cn(C(C)C)cn1)c1csc(NC(=O)c2cccn2Cc2ccnc(F)c2)n1 [Compound B24, (E)-1-((2-fluoropyridin-4-yl)methyl)-N-(4-(1-(1-isopropyl-1H-imidazol-4-yl)prop-1-en-2-yl)thiazol-2-yl)-1H-pyrrole-2-carboxamide]",>46,>46
<1%,13.7 µM,17.3 µM,> 25 µM,<1%,<1%,0.404 µM,0.05%,> 25 µM,> 25 µM,"C/C(=C\c1cn(C(C)C)cn1)c1csc(NC(=O)c2cccn2Cc2ccncc2)n1 [Compound B25, (E)-N-(4-(1-(1-isopropyl-1H-imidazol-4-yl)prop-1-en-2-yl)thiazol-2-yl)-1-(pyridin-4-ylmethyl)-1H-pyrrole-2-carboxamide]",>62,>61
<1%,7.13 µM,19.7 µM,0.737 µM,59%,10%,0.117 µM,31%,3.82 µM,0.332 µM,"O=C(Nc1nc(/C=C/C2CCCC2)cs1)c1cccn1Cc1ccnc(F)c1 [Compound B26, (E)-N-(4-(2-cyclopentylvinyl)thiazol-2-yl)-1-((2-fluoropyridin-4-yl)methyl)-1H-pyrrole-2-carboxamide]",6,33
